Experiments:
[1] = test system: KIF20A-A24 (66-75) SP-specific CD8^+ T-cells; test: Expansion and CD107a expression of KIF20A-A24 (66-75) SP-specific CTLs cultured with LP-specific Th cells; format: cell-based, human; settings: donor HDK5
Experimental: [FIG. 7C-D] In Part C, CD107a expression of KIF20A-A24 (66-75) SP-specific CD8^+ T-cells expanded by activated KIF20A (809-833) LP-specific Th cells. KIF20A (809-833) LP-specific bulk CD4^+ T-cells and KIF20A-A24 (66-75) SP-specific bulk CD8^+ T-cells derived from HLA-A24^+/DR15^+ (HDK5) were cultured with autologous DCs in the presence of KIF20A-A24 (66-75) SP (SP alone), KIF20A-A24 (66-75) SP+Control LP (Control LP+SP), or KIF20A-A24 (66-75) SP+KIF20A (809-833) LP (KIF20A (809-833)-LP+SP) without addition of any cytokine. After 1-week in vitro culture with peptides, the cultured cells were stained with PE-labeled tetramer of the HLA-A*24:02/KIF20A-A24 (67-75) complex and PerCP-labeled anti-human CD8 mAb. Data are presented as the mean+/−SD of triplicate assays. Representative data from 3 independent experiments with similar results are shown. In Part D, After 1-week in vitro culture with peptides, the cultured cells were re-stimulated with KIF20A-A24 (66-75) SP and stained with PE-labeled tetramer of the HLA-A*24:02/KIF20A-A24 (67-75) complex, FITC-labeled anti-human CD107a mAb, and PerCP-labeled anti-human CD8 mAb. The absolute number of KIF20A-A24 (66-75) SP-specific CTLs expressing CD107a on the cell surface after re-stimulation with KIF20A-A24 (66-75) SP was shown. Data are presented as the mean+/−SD of triplicate assays. […]

[2] = test system: PBMCs from patients with HNMT; test: KIF20A-LPs-specific CD4+ T-cell responses in patients with HNMT (IFN-gamma ELISPOT); format: cell-based, human; settings: for Number of specific IFN-gamma spots, patients vs healthy donors: 16 HNMT patients, 9 healthy donors
Description: Blood samples were collected from 16 patients with a head and neck malignant tumor (HNMT). The immune responses of Th cells reactive to KIF20A-LPs were investigated. The patients were receiving immunotherapy with TAA-derived CTL-epitope peptides, and were enrolled in 2 peptide vaccine trials. These phase I/II clinical trials of cancer immunotherapy using 3 HLA-A24-binding short peptides (SPs), (clinical-grade 9-10-amino acid-long peptides) derived from 3 cancer-testis antigens, LY6K (LY6K-A24(177-186)), IMP-3 (IMP-3-A24(508-516)), and CDCA1 (CDCA1-A24(56-64)) were reviewed and approved by the Institutional Review Board of Kumamoto University, Japan (Kono K et al. J Transl Med 2012; 10:141., Suda T et al. Cancer Sci 2007; 10:1803-8., Harao M et al. Int J Cancer 2008; 123:2616-25.). […] All patients with HNMT were selected on the basis of HLA-A24 presence after providing written informed consent. The patients suffered from inoperable advanced HNMT with recurrent or metastatic tumors and were resistant to standard therapy; they were enrolled in the trial under University Hospital Medical Information Network Clinical Trials Registry (UMIN-CTR) number 000008379 (CTR-8379). The patients with radical resection were enrolled in the trial under UMIN-CTR number 000008380 (CTR-8380). In the latter trial, patients were treated with postoperative peptide vaccine combined with S-1, ifosfamide, or doxorubicin. These clinical trials and analyses are ongoing.
Fresh PBMCs from patients with HNMT or healthy donors were cultured with a mixture of KIF20A (60-84) LP and KIF20A (809-833) LP (10 micro g/mL each) in a final volume of 2 ml AIM-V supplemented with 5% human decomplemented plasma at 37 degrees C. (2×10^6 cells/well, 24-well plates); both rhIL-2 and rhIL-7 were added on day 0 and 2. After 1 week of cell culture, the PBMCs were collected, washed, and cultured in ELISPOT plates (1×10^5 cells/well) with KIF20A (60-84) LP, KIF20A (809-833) LP, or control LP for 18 h. The number of KIF20A-LP-specific Th cells expressed as spot-forming cells/10^5 cells was calculated after subtracting control values (background). Responses were scored as positive when the mean number of IFN-gamma spots was more than 15 and more than 2-fold over background. The ELISPOT assays on patients' cells were conducted in single, duplicate, or triplicate wells because of the limited number of available cells.

CIAEQYHTVLKLQGQVSAKKRLGTN [KIF20A (809-833)]
Absolute number of KIF20A-A24 (66-75) SP-specific CTLs expressing CD107a ([1]; SP+LP culture, after re-stimulation with SP): significantly augmented | Absolute number of KIF20A-A24 (66-75) SP-specific CD8^+ T-cells ([1]; SP+LP with LP-specific bulk CD4+ T-cells and autologous DCs, 1 week, vs SP alone or Control LP+SP): significantly increased | Number of specific IFN-gamma spots, patients vs healthy donors [2]: significantly larger than in healthy donors | Specific responses during the course of immunotherapy ([2]; HNMT patients): augmented in some patients (HNMT31 and 42), or induced in HNMT43 | HLA restriction of LP-specific IFN-gamma production by T-cells ([2]; patients HNMT31 and HNMT43, blocking mAbs): significantly inhibited by addition of anti-HLA-DR mAb but not by anti-HLA-class I mAb

DSMEKVKVYLRVRPLLPSELERQED [KIF20A (60-84)]
Number of specific IFN-gamma spots, patients vs healthy donors [2]: significantly larger than in healthy donors
